Our source for the EC50 values is PMC7201532, “The role of Piper chaba Hunt. and its pure compound, piperine, on TRPV1 activation and adjuvant effect” (BMC Complementary Medicine and Therapies, 2020).

The structures appear in SMILES notation.

This assay deals with TRPV1 (Homo sapiens, UniProt Q8NER1). The experiment in a line: Fluo-4 calcium imaging in HEK293 cells stably expressing human TRPV1; no effect in control T-REx HEK293 cells; blocked by AMG9810. It is filed as cell-based.
TRPV1, sequence (Q8NER1 whole entry): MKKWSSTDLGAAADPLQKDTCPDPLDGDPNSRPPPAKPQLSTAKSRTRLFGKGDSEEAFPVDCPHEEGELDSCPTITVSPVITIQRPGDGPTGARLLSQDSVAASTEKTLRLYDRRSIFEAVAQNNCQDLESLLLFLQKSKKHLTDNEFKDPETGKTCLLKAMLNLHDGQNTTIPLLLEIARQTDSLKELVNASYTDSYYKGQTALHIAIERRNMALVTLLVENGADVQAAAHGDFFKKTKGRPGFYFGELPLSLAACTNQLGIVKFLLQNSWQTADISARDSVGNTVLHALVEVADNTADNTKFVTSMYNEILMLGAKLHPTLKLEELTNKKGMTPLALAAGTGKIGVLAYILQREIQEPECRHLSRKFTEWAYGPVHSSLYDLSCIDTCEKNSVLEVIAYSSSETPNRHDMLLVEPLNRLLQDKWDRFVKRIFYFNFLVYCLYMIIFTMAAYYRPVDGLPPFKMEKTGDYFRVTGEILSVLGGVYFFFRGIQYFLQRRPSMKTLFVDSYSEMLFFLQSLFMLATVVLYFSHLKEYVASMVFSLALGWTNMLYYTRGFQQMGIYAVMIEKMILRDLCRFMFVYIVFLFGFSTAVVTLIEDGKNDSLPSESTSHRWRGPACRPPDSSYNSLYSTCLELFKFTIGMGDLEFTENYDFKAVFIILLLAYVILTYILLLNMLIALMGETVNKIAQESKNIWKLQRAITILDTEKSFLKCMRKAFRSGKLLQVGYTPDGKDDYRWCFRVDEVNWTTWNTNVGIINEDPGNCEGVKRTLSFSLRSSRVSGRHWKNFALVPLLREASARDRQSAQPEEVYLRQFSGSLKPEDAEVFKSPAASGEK

On to `O=C(/C=C/C=C/c1ccc2c(c1)OCO2)N1CCCCC1` [Piperine], for which the concentration giving a half-maximal response (EC50) stood at 1.08 µM.

Broadly, the EC50 is the midpoint of the concentration-response curve.
